Here are results for 35 molecules from US20060045953A1 (priority 2004, published 2006).

SMILES strings stand for the structures. Where two headings read alike, the source gives them in different places.

The experiment addresses T1, hT1R1/hT1R3 umami receptor (Homo sapiens, UniProt Q7RTX0+Q7RTX1).
T1 construct: expressed in transfected cells; host or cells: HEK293 derivative stably expressing Gα15, clone I-17, expression induced with mifepristone
T1 sequence (Q7RTX1 21-841): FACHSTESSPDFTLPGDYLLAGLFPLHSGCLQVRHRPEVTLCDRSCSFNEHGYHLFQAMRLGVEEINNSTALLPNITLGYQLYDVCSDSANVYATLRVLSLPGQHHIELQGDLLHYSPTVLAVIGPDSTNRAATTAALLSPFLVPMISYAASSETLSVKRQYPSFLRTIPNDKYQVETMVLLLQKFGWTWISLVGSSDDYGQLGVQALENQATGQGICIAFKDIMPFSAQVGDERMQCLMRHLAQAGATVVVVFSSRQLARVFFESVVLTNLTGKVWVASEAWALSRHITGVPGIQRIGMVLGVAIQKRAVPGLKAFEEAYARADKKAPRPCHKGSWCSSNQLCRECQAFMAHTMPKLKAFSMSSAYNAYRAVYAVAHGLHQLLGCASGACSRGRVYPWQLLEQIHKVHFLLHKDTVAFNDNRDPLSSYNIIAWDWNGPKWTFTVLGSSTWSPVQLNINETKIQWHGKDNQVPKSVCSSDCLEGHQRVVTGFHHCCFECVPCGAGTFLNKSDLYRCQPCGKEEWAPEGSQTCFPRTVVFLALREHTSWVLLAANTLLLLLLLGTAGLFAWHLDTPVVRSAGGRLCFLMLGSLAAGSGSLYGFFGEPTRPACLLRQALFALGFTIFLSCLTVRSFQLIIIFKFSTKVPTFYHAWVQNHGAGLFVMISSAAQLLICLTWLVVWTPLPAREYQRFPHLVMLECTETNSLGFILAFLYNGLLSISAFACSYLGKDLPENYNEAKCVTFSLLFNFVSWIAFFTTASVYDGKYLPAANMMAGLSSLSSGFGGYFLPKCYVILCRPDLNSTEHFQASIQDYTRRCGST
T1 sequence (Q7RTX0 21-852): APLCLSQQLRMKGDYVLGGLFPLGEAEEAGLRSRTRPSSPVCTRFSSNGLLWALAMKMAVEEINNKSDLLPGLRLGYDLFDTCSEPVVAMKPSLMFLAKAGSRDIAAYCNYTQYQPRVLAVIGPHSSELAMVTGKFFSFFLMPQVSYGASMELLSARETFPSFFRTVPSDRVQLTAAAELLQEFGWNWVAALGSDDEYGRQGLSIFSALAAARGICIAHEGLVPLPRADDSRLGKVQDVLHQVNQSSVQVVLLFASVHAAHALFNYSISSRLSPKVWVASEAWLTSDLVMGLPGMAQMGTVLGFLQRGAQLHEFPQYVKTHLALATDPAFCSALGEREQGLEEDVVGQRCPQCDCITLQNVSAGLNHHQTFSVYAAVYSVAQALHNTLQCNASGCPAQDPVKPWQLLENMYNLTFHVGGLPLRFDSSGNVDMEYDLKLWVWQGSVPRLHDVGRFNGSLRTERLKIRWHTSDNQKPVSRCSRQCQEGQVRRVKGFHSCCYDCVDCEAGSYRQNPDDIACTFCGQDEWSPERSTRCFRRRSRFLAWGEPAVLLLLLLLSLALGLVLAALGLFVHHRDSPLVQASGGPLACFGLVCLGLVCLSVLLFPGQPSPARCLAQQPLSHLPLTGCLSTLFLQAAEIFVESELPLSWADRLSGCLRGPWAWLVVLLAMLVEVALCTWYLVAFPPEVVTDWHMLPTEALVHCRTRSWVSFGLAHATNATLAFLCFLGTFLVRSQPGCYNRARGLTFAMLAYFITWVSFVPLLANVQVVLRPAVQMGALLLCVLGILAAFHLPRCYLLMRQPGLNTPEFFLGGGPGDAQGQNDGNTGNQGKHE
Put plainly: In vitro hT1R1/hT1R3 umami taste receptor activation assay (FLIPR, dose response). In kind it is cell-based. The text has this:
In order to identify new savory flavoring agents and enhancers, including compounds with savory agonist and enhancer activities (dual activity), the compounds of Formula (I) were screened in primary assays and secondary assays including compound dose response and enhancement assay. In a primary assay for potential ability to modulate umami taste, amide compounds of Formula (I) that can be either savory flavoring agents in their own right or flavor enhancers of MSG are identified and scores of their activities are given as percentage of the maximum MSG intensity (%). In compound dose response, an EC50 is calculated to reflect the potency of the compound as a savory agonist or enhancer.
An HEK293 cell line derivative (See e.g., Chandrashekar, et al., Cell (2000) 100: 703-711) which stably expresses Gα15 and hT1R1/hT1R3 under an inducible promoter (see WO 03/001876 A2) was used to identify compounds with savory tasting properties.
For dose-responses analysis, stimuli were presented in duplicates at 10 different concentrations ranging from 1.5 nM to 30 μM. Activities were normalized to the response obtained with 60 mM monosodium glutamate, a concentration that elicits maximum receptor response. […] Identical results were obtained when analyzing the dose-response data using commercially available software for non-linear regression analysis such as GraphPad PRISM (San Diego, Calif.).

The mark [1] stands for this setting: read-out: EC50 for activation of a hT1R1/hT1R3 umami receptor expressed in an HEK293 cell line.
[2] abbreviates: Table A, Umami Amides, read-out: Umami EC50.
[3] abbreviates: Table C, Umami Ureas, read-out: Umami EC50.
[4] abbreviates: Table D, Umami Acrylamides, read-out: Umami EC50.

Take `O=C(NCCc1ccccn1)C(=O)NCc1cccc2c1OCO2` [Example 149, N-(Benzo[d][1,3]dioxol-4-ylmethyl)-N′-(2-(pyridin-2-yl)ethyl)oxalamide]: the EC50 under setting [1] was 170 nM.
For the molecule `COC(=O)C(CCSC)NC(=O)c1cc2cc(OC)ccc2o1` (centres unmarked) [Example A14, methyl 2-(5-methoxybenzofuran-2-carboxamido)-4-(methylthio)butanoate], under setting [2], the EC50 was 1140 nM.
On to `CCCC(CCC)NC(=O)c1ccc(OCC)cc1` [Example A68, 4-ethoxy-N-(heptan-4-yl)benzamide], for which, under setting [2], the EC50 worked out at 320 nM.
In the case of `COC(=O)[C@@H](CC(C)C)NC(=O)c1cc(OC)nc(OC)c1` [Example 93, (R)-methyl 2-(2,6-dimethoxyisonicotinamido)-4-methylpentanoate], under setting [1], the EC50 stood at 1910 nM.
For `CCCC(CCC)NC(=O)c1ccc(OC)c([N+](=O)[O-])c1` [Example A120, N-(heptan-4-yl)-4-methoxy-3-nitrobenzamide], the EC50 under setting [2] stood at 80 nM.
Regarding `COc1ccc(C(=O)NC(C)CCc2ccccc2)cc1C` (centres unmarked) [Example A76, 4-methoxy-3-methyl-N-(4-phenylbutan-2-yl)benzamide], the EC50 under setting [2] stood at 400 nM.
Same read-out and setting: the same measure for `CCC(CC)NC(=O)c1cc2ccccc2o1` [Example A21, N-(pentan-3-yl)benzofuran-2-carboxamide]: 1520 nM; for `COc1ccc([C@@H](C)NC(=O)c2ccc(OC)c(Cl)c2)cc1` [Example A89, (R)-3-chloro-4-methoxy-N-(1-(4-methoxyphenyl)ethyl)benzamide]: 600 nM.
As to `CSc1ccccc1CNC(=O)C(=O)NCCc1ccccn1` [Example 147, N-(2-(Methylthio)benzyl)-N′-(2-(pyridin-2-yl)ethyl)oxalamide], under setting [1], the EC50 is 960 nM.
The same measure, in the same setting: as for `CC(=O)Oc1ccccc1CNC(=O)C(=O)NCCc1ccccn1` [Example 142], the figure is 8500 nM.
`COCOC[C@@H](CC(C)C)NC(=O)c1ccc(C)c(C)c1` [Example 72, (R)-N-(1-(methoxymethoxy)-4-methylpentan-2-yl)-3,4-dimethylbenzamide]: under setting [1], the EC50 came out at 1060 nM.
Consider `Cc1ccc(C(=O)NC2CCCCC2C)cc1C` (centres unmarked) [Example A124, 3,4-dimethyl-N-(2-methylcyclohexyl)benzamide], for which, under setting [2], the EC50 was 10 nM.
As to `CCCC(CCC)NC(=O)c1cccc(C)c1N` [Example A127, 2-amino-N-(heptan-4-yl)-3-methylbenzamide], the EC50 under setting [2] was determined as 140 nM.
As for `COC(=O)[C@@H](CC(C)C)NC(=O)c1ccc(C)c(SC)c1` [Example 49, (R)-methyl 4-methyl-2-(4-methyl-3-(methylthio)benzamido)pentanoate], under setting [1], the EC50 came out at 100 nM.
With `CCOc1ccc(C(=O)NC(CC)CC(C)C)cc1C` (centres unmarked) [Example A72, 4-ethoxy-3-methyl-N-(5-methylhexan-3-yl)benzamide], the EC50 under setting [2] is 340 nM.
In the case of `O=C(NCc1ccc(OC(F)(F)F)cc1)c1ccsc1` [Example 107, Thiophene-3-carboxylic acid 4-trifluoromethoxy-benzylamide], the EC50 under setting [1] was 2200 nM.
With `COc1ccccc1NC(=O)NC1CCCCC1C` (centres unmarked) [Example C12, 1-(2-methoxyphenyl)-3-(2-methylcyclohexyl)urea], the EC50 under setting [3] is 1670 nM.
Turning to `CCCC(CC)NC(=O)c1ccc(OC)c(C)c1` (centres unmarked) [Example 12, N-(hexan-3-yl)-4-methoxy-3-methylbenzamide], the EC50 under setting [1] was 120 nM.
Turning to `CCCC(CCC)NC(=O)c1cccc(OC)c1` [Example A90, N-(heptan-4-yl)-3-methoxybenzamide], under setting [2], the EC50 stood at 610 nM.
Same read-out and setting: as for `CCCC(CCC)NC(=O)c1ccc(C)s1` [Example A38, 5-Methyl-thiophene-2-carboxylic acid (1-propyl-butyl)-amide], the figure is 1220 nM.
As for `CCCC(CCC)NC(=O)c1ccc2c(c1)CCO2` [Example A52, N-(heptan-4-yl)-2,3-dihydrobenzofuran-5-carboxamide], under setting [2], the EC50 amounted to 1650 nM.
Regarding `CCCC(COC)NC(=O)c1cc2cc(OC)ccc2o1` (centres unmarked) [Example A19, 5-methoxy-N-(1-methoxypentan-2-yl)benzofuran-2-carboxamide], the EC50 under setting [2] was 1300 nM.
On to `CCCC(CCC)NC(=O)Nc1ccc(C)cc1OC` [Example C15, 1-(heptan-4-yl)-3-(2-methoxy-4-methylphenyl)urea], for which the EC50 under setting [3] worked out at 160 nM.
Regarding `CCC(CC)NC(=O)c1ccc(OC)c(Cl)c1` [Example 61, 3-chloro-4-methoxy-N-(pentan-3-yl)benzamide], the EC50 under setting [1] was 560 nM.
As to `CCCC(CC)NC(=O)c1ccc(C)c(SC)c1` (centres unmarked) [Example A81, N-(hexan-3-yl)-4-methyl-3-(methylthio)benzamide], under setting [2], the EC50 came out at 500 nM.
For the molecule `CCC(COC)NC(=O)/C=C/c1ccc(OC)cc1` (centres unmarked) [Example D14, (E)-N-(1-methoxybutan-2-yl)-3-(4-methoxyphenyl)acrylamide], the EC50 under setting [4] is 1430 nM.
On to `Cc1ccc(CCNC(=O)c2occc2C)cc1` [Example 120, 3-methyl-N-(p-tolylethyl)furan-2-carboxamide], for which the EC50 under setting [1] was 6000 nM.
For the molecule `COCC(NC(=O)c1ccc(C)c(C)c1)C(C)C` (centres unmarked) [Example 73, N-(1-Methoxymethyl-2-methyl-propyl)-3,4-dimethyl-benzamide], under setting [1], the EC50 was found to be 870 nM.
For the molecule `CC(CCc1ccccc1)NC(=O)/C=C/c1cccs1` (centres unmarked) [Example D4, N-(1-Methyl-3-phenyl-propyl)-3-thiophen-2-yl-acrylamide], the EC50 under setting [4] is 690 nM.
`O=C(NCCc1ccccn1)C(=O)NCc1ccc2c(c1)OCO2` [Example 138, N-(benzo[d][1,3]dioxol-5-ylmethyl)-N′-(2-(Pyridin-2-yl)ethyl)oxalamide]: the EC50 under setting [1] was determined as 500 nM.
For the molecule `CCCC(CC)NC(=O)c1ccc(SC)c(C)c1` (centres unmarked) [Example A54, N-(hexan-3-yl)-3-methyl-4-(methylthio)benzamide], the EC50 under setting [2] is 120 nM.
For `CCCC(CC(C)C)NC(=O)c1cc2cc(OC)ccc2o1` (centres unmarked) [Example A18, 5-methoxy-N-(2-methylheptan-4-yl)benzofuran-2-carboxamide], the EC50 under setting [2] was determined as 1270 nM.
For the molecule `CCCCC(NC(=O)/C=C/c1ccc(OC)cc1)C(=O)OC` (centres unmarked) [Example D3, (E)-methyl 2-(3-(4-methoxyphenyl)acrylamido)hexanoate], under setting [4], the EC50 was 630 nM.
On the same count and under the same terms, the same measure for `CCCC(CCC)NC(=O)/C=C/c1ccsc1` [Example D15, (E)-N-(heptan-4-yl)-3-(thiophen-3-yl)acrylamide]: 1540 nM.
As to `CCC(NC(=O)Nc1ccc(Cl)cc1Cl)c1ccccc1` (centres unmarked) [Example C2, 1-(2,4-dichlorophenyl)-3-(1-phenylpropyl)urea], under setting [3], the EC50 was 490 nM.
